Test results: PMC7571145, “Multistep Synthesis and In Vitro Anticancer Evaluation of 2-Pyrazolyl-Estradiol Derivatives, Pyrazolocoumarin-Estradiol Hybrids and Analogous Compounds” (Molecules, 2020)

Assays:
MRC-5 fibroblasts = assay: MTT cytotoxicity assay on non-cancerous MRC-5 fibroblasts; format: cell-based; details: 2.5 µM, 72 h, MTT, mean±SD, untreated control about 100
Description: (§1) Cytotoxicity screens were performed to assess the in vitro anticancer activity of the synthesized A-ring-linked 2-pyrazoles of estradiol, the pyrazolocoumarin-estradiol hybrids, and their structurally simplified non-steroidal analogs on various cancerous cell lines such as MCF-7, PC-3, DU145, and HeLa and on non-cancerous MRC-5 fibroblasts. The 2-acetyl-phenol starting materials (4, 5, and 15) were also included for comparison. All compounds were applied in 2.5 µM concentration for 72 h. The obtained cell viability data were used to construct a heat map (Figure 2) in order to select compounds that exert cancer cell line-specific cytotoxicity. […] Furthermore, some compounds discriminated only DU145 cells and could eliminate these type of prostate cancer cells.
(§2) To understand structure-function relationships, we also included the structural analogs of the selected compounds, namely 7a (C-17 acetate of 8a), 8c (C-17 OH counterpart of 7c), and 9a (steroidal pair of 19a) into subsequent analyses. […] For this, compounds were applied on MCF-7, PC-3, DU145, and HeLa and on non-cancerous MRC-5 fibroblasts in various concentrations for 72 h or were treated with cisplatin at different concentrations. On the viability data, dose–response curves were fitted (Figure S1) and IC50 values were calculated accordingly (Table 3). In agreement with the primary cytotoxicity screen (Table S1), the obtained IC50 concentrations clearly indicated which compound was selectively effective on one or more cancer cell lines. […] Typically, acetylated steroidal pyrazoles were less favorable than deacetylated counterparts due to reduced cancer cell selectivity (7c, 10a).
(§3) To evaluate the in vitro pharmacological effects of the synthesized molecules, each compound was first dissolved in cell culture grade DMSO (Sigma) to a final concentration of 10 mM. Using MTT colorimetric assay, the cytotoxicity of these compounds was evaluated on cancerous (MCF-7, HeLa, DU145, PC-3) and non-cancerous (MRC-5) cell lines. Briefly, 5000 cells/well of each cell line were seeded in 96-well plates and were left to grow overnight in a 5% CO2 atmosphere at 37 °C. On the next day, cells were treated with each derivative separately, in case of the primary screen, or only with the selected compounds upon IC50 determination. Cells were incubated with the test compounds for 72 h in a 5% CO2 atmosphere at 37 °C. End point was measured by incubating cells for 1 h with 0.5 mg/mL of MTT reagent (Serva) dissolved in serum free culture medium. The formazan crystals formed by metabolically active cells were later dissolved in DMSO. Optical density of the obtained solutions was measured at 570 nm using a Synergy HTX plate reader. […] The analysis and conclusions were made based on three independent experiments. Normalized data were analyzed and the heat map was constructed using GraphPad Prism 7 software.

DU145 cells = assay: MTT cytotoxicity assay on DU145 prostate cancer cells; format: cell-based; details: 2.5 µM, 72 h, mean±SD, untreated control about 100
Description: as §1, §2, §3

PC-3 cells = assay: MTT cytotoxicity assay on PC-3 prostate cancer cells; format: cell-based; details: 2.5 µM, 72 h, mean±SD, untreated control about 100
Description: as §1, §2, §3

MCF-7 cells = assay: MTT cytotoxicity assay on MCF-7 cells; format: cell-based; details: 2.5 µM, 72 h, mean±SD, untreated control about 100
Description: as §1, §2, §3

HeLa cells = assay: MTT cytotoxicity assay on HeLa cells; format: cell-based; details: 2.5 µM, 72 h, mean±SD, untreated control about 100
Description: as §1, §2, §3

Row | SMILES | melting point | primary growth inhibitory screen, cell viability, MRC-5 (MRC-5 fibroblasts) | primary growth inhibitory screen, cell viability, DU145 (DU145 cells) | primary growth inhibitory screen, cell viability, PC-3 (PC-3 cells) | primary growth inhibitory screen, cell viability, MCF-7 (MCF-7 cells) | primary growth inhibitory screen, cell viability, HeLa (HeLa cells)
1 | Cc1ccc(-n2cc3c(=O)oc4cc5c(cc4c3n2)CCCC5)cc1 [Compound 19b, 2-(4′-Tolyl)-7,8,9,10-tetrahydrobenzo[6,7]chromeno[4,3-c]pyrazol-4(2H)-one] | 224 to 226 °C | ≥ 100±0 | 100.6±6.3 | 84.1±5.2 | ≥ 100±4.8 | ≥ 100±2.4
2 | O=c1oc2cc3c(cc2c2nn(-c4ccc(Cl)cc4)cc12)CCCC3 [Compound 19c, 2-(4′-Chlorophenyl)-7,8,9,10-tetrahydrobenzo[6,7]chromeno[4,3-c]pyrazol-4(2H)-one] | 291 to 293 °C | ≥ 100±2.5 | ≥ 100.6±10.8 | 79.1±7.8 | ≥ 100±3.8 | ≥ 100±8.3
